Data published in US20210386791A1, “METHODS OF CELLULAR REPROGRAMMING” (TissueTech, Inc., priority 2018, published 2021).

Tested on: human corneal fibroblasts (HCF)
Assay: Time course of nuclear translocation (CD44-ICD, TAK1, JNK1, Cyclin D1, p75NTR) and CD44 immunoprecipitation in HCF treated with HC-HA/PTX3±TGFβ1±inhibitors
Type: cell-based
Conditions: HC-HA/PTX3+TGFβ1 with inhibitor 10 μM; for nuclear translocation of CD44-ICD at 5 min: immunostaining and Western blotting
Method: Human corneal fibroblasts (P3) were seeded on plastics with or without immobilized HC-HA/PTX3 complex for 72 h in DMEM+10% FBS, then serum starved for 24 h and treated with or without TGFβ1 for 24 h before being harvested for mRNA quantitation or immunostaining. For determination of protein of TGFβ receptor or p75NTR, the cells were treated with or without TGF-β1 for 48 h before collection of protein samples because the protein expression lags behind mRNA expression. For TGF-β1 ELISA, the cells were treated with or without TGF-β1 for 24 h, and then cultured in the fresh medium for another 24 h. The supernatants were collected for TGFβ1 ELISA. For TGFβ2 and TGFβ3 ELISA, the cells were treated with or without TGFβ1 for 48 h. Certain HCF were seeded on glass in DMEM+10% FBS for 24 h, then in DMEM+ITS (insulin-transferrin-selenium) for 24 h, treated with/without PBS or hyaluronic acid (HA) or HC-HA/PTX3±TGFβ1 (10 ng/ml)±Marimastat (10 μM) or ±DAPT (10 μM) or ±both for 0, 5, 15, 30 and 45 minutes before being harvested for immunostaining of CD44-ICD, JNK1, Cyclin D1 and p75NTR and for 5 minutes before being harvested for Western blotting of cytoplasmic and nuclear CD44-ICD, active MT1-MMP, and active γ-secretase after compartmental separation of the cellular components.
HCF, induced human corneal endothelial cells (HCEC), and HCEC monolayer cultures were air-dried and fixed in 4% formaldehyde, pH 7.0, for 15 min at room temperature, rehydrated in PBS, incubated with 0.2% Triton X-100 for 15 min, and rinsed three times with PBS for 5 min each. After incubation with 2% BSA to block non-specific staining for 30 min, they were incubated with the desired first antibody (all at 1:50 dilution) for 16 h at 4° C. After three washes with PBS, they were incubated with corresponding Alexa-Fluor-conjugated secondary IgG (all 1:100 dilutions) for 60 min. The samples were then counterstained with Hoechst 33342 and analyzed with Zeiss LSM 700 confocal microscope (Thornhood, N.Y.). Corresponding mouse and rabbit sera were used as negative controls for primary monoclonal and polyclonal antibodies, respectively.
The native CD44 protein was immune-precipitated by Immunoprecipitation Kit (Abcam, ab206996) with CD44 antibody (Abcam, ab157107) following the vendor's instructions.
Cell lysates were prepared in radioimmunoprecipitation assay (RIPA) buffer or non-denature lysis buffer and resolved on 4-15% (w/v) gradient acrylamide gels for Western blotting. […] Immunoreactive proteins were detected with Western Lighting Chemiluminesence.

| SMILES | nuclear translocation of TAK1, JNK1, Cyclin D1 and p75NTR at later time points | nuclear translocation of CD44-ICD at 5 min |
| --- | --- | --- |
| CNC(=O)[C@@H](NC(=O)[C@H](CC(C)C)[C@H](O)C(=O)NO)C(C)(C)C [Marimastat] | inhibited | inhibited |
| C[C@H](NC(=O)Cc1cc(F)cc(F)c1)C(=O)N[C@H](C(=O)OC(C)(C)C)c1ccccc1 [DAPT] | inhibited | inhibited |
